Measurements as given in patent US20240423988A1, “Improvement of Tumor Immunogenicity by Means of Splicing-Controlling Compound” (Kyoto University, priority 2021, published 2024).

What was measured:
MC38 cells [1] = test: IFN-γ signaling and expression of MHC class I components and PD-L1 in MC38 cells; assay type: cell-based, murine; details: for decrease in PD-L1 expression on the cell surface / increase in H2-K^b expression: 72 hours
Description: MHC class I expressed in cancer cells is critical for neoantigen presentation, which is indispensable for CD8^+ T cell-dependent immune surveillance and tumor killing. To investigate whether Compound 1 modulates the neoantigen presentation pathway, first, the effects of Compound 1 on IFN-γ signaling and the expression of MHC class I components, including […] (B2M) and H2-K^b in MC38 cells, were examined because CD8^+ T cell-secreted IFN-γ is a major inducer of MHC class I components. […] In contrast, any changes in the expression of PD-L1 were not detected in host dendritic cells or macrophages. […] However, these alterations were likely not the functional mechanisms through which Compound 1 exerts its antitumor effects (FIGS. 1-2O and 1-2P), as enhanced antitumor effects of Compound 1 were observed when co-administered with αPD-L1.

B2m-knockout MC38 clones = test: B2m KO MC38 clones and negative control clone intradermally inoculated into mice; assay type: in vivo
Protocol: [FIG. 3-2] Continuation of FIG. 3. G to J: The experimental schema (G), tumor volumes (H), flow cytometric images (I), as well as quantitative data (J) of tumor-infiltrating CD8^+ T cells on day 23 are shown (n=5 to 9/group). * represents p<0.05, and ** represents p<0.01. K: Tumor volumes of mice (n=5 to 6/group). Mice were intraperitoneally injected with 35 μg of αPD-L1 antibody or isotype control (isotype IgG) once weekly on days 9 and 16 for NC and days 11 and 18 for B2M KO #2. * represents p<0.05. All data are shown as the mean±SEM. Experiments were performed at least twice for A to F, or once for others. Statistical significance was determined using unpaired Student's t-test for (H), (J), and (K) and one-way ANOVA followed by Bonferroni's multiple comparisons test for (D) and (F).
Furthermore, whether neoantigen presentation in cancer cells is important for the antitumor effects of Compound 1 was investigated by establishing a CRISPR-Cas9-mediated knockout of B2m, an essential component of MHC class I, using MC38 cells. […] It was further confirmed that surface H-2K^b on these cells disappeared (FIGS. 3-1C and 3-1D) without affecting IFN-γ signaling (FIG. 3-1A) and the expression of PD-L1 on the cell surface (FIGS. 3-1E and 3-1F).
Then, these B2m KO MC38 clones were intradermally inoculated into immunodeficient mice, and the antitumor effects of Compound 1 were evaluated (FIG. 3-2G).

[2] = system: colon, lung, and liver tissues; test: RNA-seq of normal tissues from Compound 1-administered mice; assay type: in vivo
Description: In addition, the RNA-seq data corresponding to colon, lung, and liver tissues from Compound 1-administered mice was also examined to analyze the extent of splicing alterations. […] Considering that immune responses were not triggered by Compound 1 in these tissues, these altered splicing events in normal tissues were likely irrelevant to immunogenicity (FIGS. 2-2I to 2-3M).

MC38 cells [3] = test: RT-PCR analysis with neojunction primers; assay type: cell-based, murine; details: 10 μM, 6 hours
Protocol: [FIG. 5-2] Continuation of FIG. 5. D and E: RT-PCR analysis for splice-neoantigen coding forms (splice-NA forms) in MC38 cells treated with 10 µM Compound 1 or vehicle control (0.1% DMSO) for 6 hours. Actb served as a loading control. * represents p<0.05, ** represents p<0.01, and *** represents p<0.001. F: Splice-neoantigen producing rates calculated from RNA-seq data (n=3 biological replicates) are indicated as the APSI (Compound 1-DMSO). All data are shown as the mean±SEM. All experiments were performed at least twice. Statistical significance was determined using unpaired Student's t-test for (B) and (E).
In addition to the RNA-seq analysis, the induction of these splice-neoantigen-coding transcripts via treatment with Compound 1 was also validated using RT-PCR analysis with neojunction primers in MC38 cells (FIGS. 5-2D and 5-2E). The immunogenicity of the identified splice-neoantigens was confirmed using an IFN-γ ELISpot assay.
Total RNA was extracted from cells using a RNeasy Mini Kit (Qiagen), according to the manufacturer's protocol, and subjected to reverse transcription using a High Capacity cDNA Reverse Transcription Kit (Applied Biosystems, Foster City, CA). Genes were amplified with KOD One DNA polymerase (ToYoBo) and target-specific primer sets. […] Ethidium bromide-stained images were captured using a ChemiDoc MP Imaging System and the data were analyzed using ImageJ software. […]

Q: What does the source list for `Clc1nc(NCc2ccco2)c2[nH]cnc2n1` [Compound 1]?
A: phosphorylation of STAT1 and STAT3 and expression of B2M protein (MC38 cells [1]): no such effects; decrease in PD-L1 expression on the cell surface (MC38 cells [1]; IFN-γ 0 ng/ml): 3.8%; increase in H2-K^b expression (MC38 cells [1]; IFN-γ 0 ng/ml): 11.1%; decrease in PD-L1 expression on the cell surface (MC38 cells [1]; IFN-γ 0.1 ng/ml): 3.2%; increase in H2-K^b expression (MC38 cells [1]; IFN-γ 0.1 ng/ml): 12.4%; decrease in PD-L1 expression on the cell surface (MC38 cells [1]; IFN-γ 1 ng/ml): 26.1%; antitumor effects (tumor growth) (B2m-knockout MC38 clones; B2m KO clones): completely abolished; number of CD8^+ T cells in tumors (B2m-knockout MC38 clones; B2m KO-derived tumors): no longer inducible; antitumor effects (tumor growth) (B2m-knockout MC38 clones; negative control clone): suppressed tumor growth; induced splicing events fewer in normal tissues than in MC38 cells ([2]; colon, lung, liver): 50-60%; validated splice-neoantigen forms in normal tissues ([2]; data not shown): none of the validated splice-neoantigen forms were significantly induced; splice-neoantigen-coding transcripts (MC38 cells [3]): induction
